Values joined by “and” are separate entries in the source; they are usually repeats but may differ in a detail not shown here. Identical values can stand only once.

This is an account of results in patent US8080580B2, “Dioxa-bicyclo[3.2.1]octane-2,3,4-triol derivatives” (Pfizer Inc., priority 2008, dated 2011).

For one data set, the system named is Male Sprague Dawley rats. As to the kind of experiment: In-vivo assay: urinary glucose excretion in rats after oral gavage. The conditions noted are these: rat, urine collected for 24 hours. As to the method: Examples 1A and 4A were tested in rats to assess inhibition of glucose transport via urinary glucose excretion. Male Sprague Dawley rats (˜300 g) were singly housed in metabolic cages for urine collection. Rats had access to standard laboratory chow and water ad libitum. Rats (n=2 to 5/group) received vehicle or compound by oral gavage. Dosing solutions were 0.03 mg/mL, 0.3 mg/mL, 0.9 mg/mL, 3 mg/mL, 9 mg/mL and 18 mg/mL for the 0.1 mg/kg, 1 mg/kg, 3 mg/kg, 10 mg/kg, 30 mg/kg and 60 mg/kg doses respectively. Dosing volume was 1 mL/300 g of body weight for all doses. […] The vehicle was 20% v/v PEG400 and 24% v/v hydroxypropyl beta cyclodextrin; HPBCD. Following oral administration, urine was collected for 24 hours. Glucose concentration was measured in urine by UV absorbance spectrophotometry at 340 nm using a Roche Hitachi 917 spectrophotometer (Diamond Diagnostics, Holliston, Mass.). The total amount of glucose excreted in the urine was calculated as the product of urine concentration and urine volume using the formula below: urinary glucose excreted (mg)/200 g body weight=urinary glucose concentration (mg/dL)×urine volume (dL)×200/rat body weight (g). […] Blood (0.1 mL) was collected from the PK satellite group animals at 1, 2, 4, 7, 24 hours postdose to obtain plasma and analyzed by LC-MS/MS.

In another data set the target is T1, hSGLT1 (Homo sapiens, UniProt P13866).
T1 sequence (P13866 1-664): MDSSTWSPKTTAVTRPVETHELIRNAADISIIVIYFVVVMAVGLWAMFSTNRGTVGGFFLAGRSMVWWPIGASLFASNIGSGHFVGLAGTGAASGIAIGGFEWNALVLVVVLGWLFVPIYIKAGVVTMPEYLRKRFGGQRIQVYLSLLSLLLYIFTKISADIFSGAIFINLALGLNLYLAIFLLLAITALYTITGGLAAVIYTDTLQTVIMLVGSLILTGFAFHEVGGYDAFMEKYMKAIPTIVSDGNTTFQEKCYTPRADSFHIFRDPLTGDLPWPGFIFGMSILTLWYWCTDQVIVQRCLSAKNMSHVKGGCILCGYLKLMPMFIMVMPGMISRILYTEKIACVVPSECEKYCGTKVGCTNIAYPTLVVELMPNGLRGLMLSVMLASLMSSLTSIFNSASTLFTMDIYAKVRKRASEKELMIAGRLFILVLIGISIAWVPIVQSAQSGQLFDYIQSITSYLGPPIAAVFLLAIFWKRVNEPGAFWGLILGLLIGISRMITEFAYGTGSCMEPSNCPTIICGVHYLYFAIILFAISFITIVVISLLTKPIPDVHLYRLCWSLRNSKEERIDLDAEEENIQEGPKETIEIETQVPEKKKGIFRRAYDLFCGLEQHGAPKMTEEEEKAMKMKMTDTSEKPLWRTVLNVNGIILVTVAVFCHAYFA
As to the kind of experiment: SGLT1 functional assay: hSGLT1 IC50 (selectivity counter-screen to the SGLT2 AMG uptake assay). The format is cell-based. The settings on record: individual runs (Run No.). A general note: A counterscreen serves to expose hits that act by an unwanted route or on another target.

The nature of data set [1]: Pharmacokinetic testing in rats (IV or PO). The format is in vivo. The settings on record: rat. As to the method:
Examples 1A, 2A, 4A, 12A, and 14A were tested in rats to assess pharmacokinetic parameters including maximum concentration (Cmax), area under the plasma concentration time curve (AUC), clearance (CL), steady state volume of distribution (Vss), half life (t1/2), and bioavailability (F). Male Sprague Dawley rats (˜300 g) were used. Rats received compound by intravenous (IV) or oral gavage (PO) administration and the doses tested including vehicle to formulate dosing solutions are listed in Table 5.
Following IV or PO administration, 0.2 mL blood was sampled from the jugular vein at various timepoints (Table 5). Twenty microL aliquots of plasma samples and standards were subjected to protein precipitation with acetonitrile containing an internal standard. Samples were vortexed and centrifuged to obtain supernatant which was analyzed by LC-MS/MS. Analyst (Version 1.4.1) was used to measure peak areas and peak area ratios of analyte to internal standard were calculated. LC-MS/MS conditions are as follows: Mass Spectrometer+Source Type was Sciex API 4000−Turbo Spray; HPLC pump was Shimadzu; Autosampler was CTC PAL Autosampler; Injection volume was 3.0 to 10 microL; A gradient was used with mobile phase A: 10 mM ammonium acetate and 1% Isopropyl alcohol in water; B: Acetonitrile; Flowrate 0.300 mL per minute (Column 2.0×30 mm 5 microm LUNA C18 column (phenomenex)). Detection mode was negative.
A calibration curve was constructed from the peak area ratios of the standards to the internal standard by applying a weighted linear (1/x or 1/x2) regression. The dynamic range of the standard curve was 5.00 ng/mL to 5000 ng/mL.
Pharmacokinetic parameters were determined from individual animal data using non-compartmental analysis in Watson (version 7.2). Concentrations below the limit of quantitation (BLQ) were recorded as 0 ng/mL for use in calculations.
The following calculations were used: AUC(0−τ)=Determined using the linear trapezoidal method AUC(0−□)=AUC(0−τ) plus extrapolated area determined by dividing plasma concentration at τ by the slope of the terminal log-linear phase CL=Dose/AUC(0−∞) Vdss=CL×MRT Cmax=Recorded directly from plasma concentration time curve Tmax=Recorded directly from plasma concentration time curve t½=ln(0.5)/slope of the terminal log-linear phase F %=AUC(0−∞)PO per dose/AUC(0−∞)IV per dose C(0)=Extrapolated by linear regression from the apparent distribution phase following IV administration MRT=AUMC(AUC(0−∞)/AUC(0−∞)

Setting [2] is: male, Sprague Dawley, plasma, IV, 2 mg/kg.
[3] abbreviates: male, Sprague Dawley, plasma, PO, 10 mg/kg, PEG200/0.5% MC.
The mark [4] stands for this setting: male, Sprague Dawley, plasma, PO, 2 mg/kg, Tween 80/0.5% MC.
[5] abbreviates: male, Sprague Dawley, plasma, PO, 5 mg/kg, 20% PEG/24% HBCD.

For `COc1ccc(Cc2cc([C@]34OC[C@](CO)(O3)[C@@H](O)[C@H](O)[C@H]4O)ccc2C)cc1` [Example 1A, (1S,2S,3S,4R,5S)-1-hydroxymethyl-5-[3-(4-methoxy-benzyl)-4-methyl-phenyl]-6,8-dioxa-bicyclo[3.2.1]octane-2,3,4-triol], the “Mean UGE (mg/200 g of body weight) ± SEM (n = 5)” value with Male Sprague Dawley rats (10 mg/kg) was 2049 ± 382.2 mg/200 g of body weight. For the same molecule, the IC50 (usually the concentration at which inhibition is half-maximal) against hSGLT1 was 0.359 µM and 1.08 µM and 0.454 µM and 0.327 µM and 0.562 µM and 0.262 µM. Further, the AUC(0-inf) (as a rule, the area under the concentration-time curve extrapolated to infinity) in data set [1] (setting [2]) was found to be 947 ng·h/mL. Also, in data set [1] (setting [3]), the AUC(0-inf) amounted to 2680 ng·h/mL; the concentration peaked (Cmax) at 1650 ng/mL; the half-life (as a rule, the time needed for the level to fall by half in the phase considered) is 2.82 h. In data set [1] (IV, 2 mg/kg), this molecule returned a CL of 37.1 mL/min/kg, a Vss of 1.71 L/kg and a t1/2 of 0.962 h. The molecule further displayed a F in data set [1] (PO, 10 mg/kg, PEG200/0.5% MC) of 56.5%.

On to `CCOc1ccc(Cc2cc([C@]34OC[C@](CO)(O3)[C@@H](O)[C@H](O)[C@H]4O)ccc2Cl)cc1` [Example 4A, (1S,2S,3S,4R,5S)-5-[4-chloro-3-(4-ethoxy-benzyl)-phenyl]-1-hydroxymethyl-6,8-dioxa-bicyclo[3.2.1]octane-2,3,4-triol], for which the “Mean UGE (mg/200 g of body weight) ± SEM (n = 5)” value is on record as 389.0 ± 62.54 mg/200 g of body weight in the data set on Male Sprague Dawley rats (0.1 mg/kg); 1519 ± 52.02 mg/200 g of body weight in the data set with Male Sprague Dawley rats (1 mg/kg); 1937 ± 101.1 mg/200 g of body weight in the data set on Male Sprague Dawley rats (3 mg/kg); 2145 ± 132.3 mg/200 g of body weight in the data set with Male Sprague Dawley rats (10 mg/kg); 2554 ± 141.1 mg/200 g of body weight in the data set on Male Sprague Dawley rats (30 mg/kg); 2437 ± 116.7 mg/200 g of body weight in the data set with Male Sprague Dawley rats (60 mg/kg). The IC50 against hSGLT1 was 1.59 µM and 1.01 µM and 1.75 µM and > 1 µM and 2.09 µM and 1.81 µM and 2.86 µM and 2.48 µM and 2.84 µM. Moreover, the AUC(0-inf) was found to be 8480 ng·h/mL in data set [1] (setting [2]), 5650 ng·h/mL in data set [1] (setting [4]) and 16800 ng·h/mL in data set [1] (setting [5]). For the same molecule, the Vd in data set [1] (male, Sprague Dawley, plasma, IV, 2 mg/kg, read-out: Vss) is 1.1 L/kg. Moreover, the Cmax – broadly, the highest concentration seen after dosing – in data set [1] (setting [4]) was 772 ng/mL; in data set [1] (setting [5]) it was 1190 ng/mL. For the same molecule, the half-life in data set [1] (setting [4]) is 3.7 h. The molecule also gave a CL in data set [1] (IV, 2 mg/kg) of 4.04 mL/min/kg. The t1/2 in data set [1] (IV, 2 mg/kg) was 4.1 h. Moreover, the F in data set [1] (PO, 2 mg/kg, Tween 80/0.5% MC) stood at 67%; in data set [1] (PO, 5 mg/kg, 20% PEG/24% HBCD), 79%.
